Data as given in patent US20180177749A1, “USE OF CYP EXPRESSION TO DIRECT THERAPEUTIC INTERVENTION IN CANCER” (REGENTS OF THE UNIVERSITY OF MINNESOTA, priority 2016, published 2018).
pIC50, pKi: −log10 of the molar value. Read-outs that look alike come from different tables or passages of the source.

How the values were obtained:
MCF-7 cells [1] = assay: Cellular EET levels by LC-ESI/MS/MS; format: cell-based, human; details: metformin 5 mM, 6 hours
Protocol: Samples were submitted to liquid chromatography-electrospray ionization/multiple reaction monitoring/mass spectrometry (LC-ESI/MRM/MS) analysis in a Thermo Electron Quantum Discovery Max triple quadrupole mass spectrometer (Thermo Finnigan, San Jose, Calif.) coupled with an Agilent 1100 HPLC (Santa Clara, Calif.), using argon as the collision gas. Negative ion monitoring was performed at the following diagnostic product ions: 319 m/z→155 m/z for 8,9-EET; 319 m/z→179 m/z for 11,12-EET; 319 m/z→219 m/z for 14,15-EET; 339 m/z→163 m/z for 8,9-[13C20]EET; 339 m/z→233 m/z for 11,12-[13C20]EET; and 339 m/z→259 m/z for 14,15-[^13C20]EET. Base-line resolution of EET regioisomers was achieved on a Phenomenex Luna C18 (2) reverse phase capillary column (250×0.5 mm, 5-μm particles) using the following mobile phase combinations: isocratic 5% B for 5 min, gradient 5-70% B for 5 min, hold at 70% for 30 min and then 95% for 10 min; A: 0.01% acetic acid in water, B: 0.01% acetic acid in acetonitrile; […] flow rate. A standard curve was obtained by linear regression of the peak area ratio of authentic EET regioisomers against internal standards. The amount of EETs in samples was calculated according to the standard curve. The (±)-5,6-EET regioisomer was not measured because it undergoes rapid internal degradation. […]

MCF-7 cells [2] = assay: Western blot of signaling proteins, MCF-7; format: cell-based, human
Protocol: RIPA extracts of cells were prepared as described previously, in the presence of protease inhibitors and phosphatase inhibitors. Protein concentrations were determined by the micro-bicinchoninic acid (BCA) method, and 30 μg of protein was used for each lane of the SDS-polyacrylamide gel Western blot. Relative protein expression was estimated using GAPDH or β-actin as an internal standard.

CYP3A4 = biological target: T1, CYP3A4 (Homo sapiens, UniProt P08684); assay: Recombinant microsomal CYP-mediated EET biosynthesis (CYP3A4 Supersomes); format: biochemical; details: for pIC50: microsomal CYP3A4
T1 construct: host or cells: insect cells (microsomes)
Description: (§1) Samples were submitted to liquid chromatography-electrospray ionization/multiple reaction monitoring/mass spectrometry (LC-ESI/MRM/MS) analysis in a Thermo Electron Quantum Discovery Max triple quadrupole mass spectrometer (Thermo Finnigan, San Jose, Calif.) coupled with an Agilent 1100 HPLC (Santa Clara, Calif.), using argon as the collision gas. […] A standard curve was obtained by linear regression of the peak area ratio of authentic EET regioisomers against internal standards. The amount of EETs in samples was calculated according to the standard curve. The (±)-5,6-EET regioisomer was not measured because it undergoes rapid internal degradation.
(§2) CYP3A4 or 2C8 Supersomes™ (BD Biosciences) were incubated at 37° C. for 30 min in the presence of AA (5 μM) in […] Tris-HCl, pH 7.4, containing 1 mm EDTA and 1 mm NADPH. Reactions were terminated by adding methylene chloride (0.5 ml). Samples were centrifuged at 3,000 rpm for 10 min and 150 μl of the organic phases were evaporated under nitrogen. Samples were reconstituted in 20 μl of MeOH containing [^13C20]EET internal standards and submitted to a Thermo Electron Quantum Discovery Max triple quadrupole mass spectrometer (Thermo Finnigan, San Jose, Calif.) coupled with an Agilent 1100 HPLC (Santa Clara, Calif.) for analysis. […] Concentrations of EETs generated by CYP Supersomes™ were calculated by linear regression against standard curve generated with EET standards.

CYP3A4 vs CYP2C8 = biological target: T2, CYP3A4 vs CYP2C8 (Homo sapiens, UniProt P08684); assay: as above; format: biochemical; details: human, CYP3A4 or CYP2C8 Supersomes (recombinant microsomes), pH 7.4, probe arachidonic acid (AA), 5 μM; CYP3A4 vs CYP2C8; read-out: selectivity for CYP3A4 epoxygenase activity
T2 construct: host or cells: insect cells (microsomes)
Description: as §1, §2

MCF-7 cells [3] = assay: Cellular ATP by luminescent assay; format: cell-based, human
Protocol: Cells were seeded in 96-well tissue culture plate in 100 μL medium per well. After treatment with either vehicle or testing compound for an appropriate length of time, 50 μL mammalian cell lysis solution was added to each well and the plate was shaken for 5 minutes on an orbital shaker. To each well, 50 μL luminescent substrate and luciferase solution were then added. After incubation in the dark for 10 minutes, the luminescence measured. Cellular ATP levels were then calculated against a standard curve generated with ATP standards of known concentration.

MCF-7 xenograft = test system: MCF-7 xenograft
Protocol: 17-β-estradiol (E2) was given in drinking water at 1 μM beginning the day of tumor implantation. […] Tumors were collected from each mouse after sacrifice and endpoint tumor weights were measured.
N=20 mice per arm for each study; error bars represent SEM.
In the HBB dose optimization model, mammary fat pad injection was performed with the MCF-7 cell line as described above, and tumors were allowed to grow until an average tumor volume of 50 mm^3. Mice were randomized, and tumor growth was monitored. Estradiol (1 μM) was present in the drinking water as above. Cremophor was administered weekly in the vehicle and HBB groups so that paclitaxel could be used in subsequent chemotherapy synergy studies (unpublished data). Mice were dosed at 6 mg/kg/day ip 4 days of 7 with no more than 2 consecutive days dosing and weighed daily. […] Tumors were harvested at the endpoint of the study following sacrifice by isoflurane anesthesia followed by cervical dislocation. Organs were harvested for histopathological assay of end organ toxicity.

T1 sequence (P08684 whole entry): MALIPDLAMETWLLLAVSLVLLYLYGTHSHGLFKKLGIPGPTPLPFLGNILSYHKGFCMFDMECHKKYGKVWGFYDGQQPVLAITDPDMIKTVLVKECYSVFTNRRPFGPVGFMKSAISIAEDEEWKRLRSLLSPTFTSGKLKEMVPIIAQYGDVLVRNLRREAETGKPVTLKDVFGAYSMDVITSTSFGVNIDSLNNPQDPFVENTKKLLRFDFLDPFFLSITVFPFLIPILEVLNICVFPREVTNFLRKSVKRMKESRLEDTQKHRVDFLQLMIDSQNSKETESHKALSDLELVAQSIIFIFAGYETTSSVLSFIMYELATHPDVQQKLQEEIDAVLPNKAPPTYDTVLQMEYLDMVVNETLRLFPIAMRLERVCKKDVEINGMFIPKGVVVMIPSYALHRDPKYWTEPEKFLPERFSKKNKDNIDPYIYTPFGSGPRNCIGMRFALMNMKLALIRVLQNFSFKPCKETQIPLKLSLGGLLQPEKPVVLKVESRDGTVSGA
T2 sequence (P08684 whole entry): as above

CCCCCCNC(=N)NC(=N)NCc1ccccc1 [HBB, N1-hexyl-N5-benzyl-biguanide]
cellular EET levels (MCF-7 cells [1]): doesn't lower total EET levels | dosing for signaling effects relative to metformin (lower) (MCF-7 cells [2]): 250 fold | mTOR, S6 kinase and ERK (MCF-7 cells [2]; 20 μM, by 24 hours, presence or absence of serum): Significant inhibition | onset of AMPK activation (phosphorylation) (MCF-7 cells [2]; HBB 20 μM, metformin 5 mM): within 30 minutes to 1 hour | pKi (CYP3A4; CYP3A4 epoxygenase activity): 5.05 | pIC50 (CYP3A4; read-out: IC50, CYP3A4 synthesis of (±)-8,9-EET): 5.02 | pIC50 (CYP3A4; read-out: IC50, CYP3A4 synthesis of (±)-11,12-EET): 5.10 | selectivity ratio at 30 min (CYP3A4 vs CYP2C8): 5 to 7 | ATP depletion (MCF-7 cells [3]; 6 hours): 30% | total cellular ATP levels (MCF-7 cells [3]; 6 hours of treatment, metformin 5 mM): reduced | end point tumor weights lower than control (MCF-7 xenograft; 4 mg/kg/day ip): 34% | tumor growth (MCF-7 xenograft; 4 mg/kg/day ip): slower growth | end point tumor weight (mean±SEM) (MCF-7 xenograft; 4 mg/kg/day ip, n=19): 220 ± 35 mg | tumor growth (MCF-7 xenograft; 6 mg/kg ip 4 of 7 days (24 mg/kg/week), from 50 mm^3): significant reduction of tumor growth | end point tumor weights lower than PBS group (MCF-7 xenograft; 24 mg/kg/week ip): 48% | end point tumor weight (mean±SEM) (MCF-7 xenograft; 24 mg/kg/week ip, n=13): 127 ± 16 mg | weight decline vs. control (MCF-7 xenograft; mouse, in vivo, ip, 6 mg/kg/day): > 5%
